Data taken from patent US10836792B2, “Retro-inverso peptide inhibitors of cell migration, extracellular matrix and endothelial invasion by tumor cells” (ISTITUTO NAZIONALE TUMORI IRCCS “FONDAZIONE G. PASCALE”, priority 2016, dated 2020).
Non-standard residues stand in square brackets, D forms with d. Residues, ends and D or L forms follow the SMILES beside them. Aib = CC(C)(N)C(=O)O

Test system: HT1080 cells
Assay: FBS-directed matrigel invasion of HT1080 cells (xCELLigence RTCA)
Assay type: cell-based, human
Excerpt: FIG. 5 Peptides RI-1, RI-2, RI-3, RI-4 and RI-5 reduced by 33%, 35%, 81%, 52% and 11%, respectively, the extent of FBS-directed matrigel invasion of HT1080 cells (A), as assessed in real time using the xCELLigence RTCA technology. The inhibitory effect of RI-3 is dose-dependent (B) (Example 5).
Cell migration is a prerequisite for cancer invasion. Therefore, we investigated whether retro-inverso peptides prevent matrigel invasion of HT1080 cells using the xCELLigence RTCA technology. Cells were seeded on polymerized matrigel and lower chambers were filled with DMEM (CTRL), growth medium (None) or growth medium with 10 nM the indicated peptides (A), or with increasing concentrations of RI-3 (B). Matrigel invasion was monitored in real time for 20 (A) or 18 (B) hrs at 37° C., 5% CO2 and the impedance values were automatically monitored as changes in cell index. Data represent means±SD from quadruplicate experiments, each representative of 2 replicates. HT1080 cells were able to cross matrigel in the presence of 10% FBS. All retro-inverso peptides caused a reduction of FBS-directed cell migration although to different extent.

SMILES: CC(=O)N[C@H](Cc1ccc(O)cc1)C(=O)N[C@H](CCCNC(=N)N)C(=O)NC(C)(C)C(=O)N[C@H](CCCNC(=N)N)C(N)=O [RI-3, Ac-(D)-Tyr-(D)-Arg-Aib-(D)-Arg-NH2] (Ac-[dY][dR][Aib][dR]-NH2)
- reduction of the extent of FBS-directed cell invasion (matrigel) (10 nM peptide, growth medium, 20 hrs): 81%
- dose dependence of the inhibition of matrigel invasion (increasing concentrations, 18 hrs): maximal effect being reached in the nanomolar range
